From patent publication US7972629B2, “Product comprising a combination of milk serum apoproteins and free fatty acids” (Westgate Biological Ltd., priority 2001, dated 2011)

What was measured:
Assay type in all cases: cell-based
[1] = system: methicillin resistant Staphylococcus aureus (MRSA); test: Adhesion of MRSA to Buccal Epithelial Cells; details: 5 mg/ml, Diagram 11
Protocol: (§1) The basis of the technique involves exposing a standardised (known) number of yeast or bacteria to a standardised substrate (number of BEC's), allowing a 60 minute incubation period for the cells to adhere and then filtering the combined population through a 10 micron nylon mesh. The mesh will retain BEC's and those yeast or bacteria adhering to them, non-adhering yeast or bacteria will be washed through, where they may be enumerated in the filtrate and expressed as a percentage of the original population not adhering; percent adherence being the inverse of this.
Fluorescent labelling of bacteria is conducted after adhesion (on those cells in the filtrate) using fluorescent dyes such as BCECF/AM (Calbiochem Biosciences Inc., La Jolla, Calif.) and Syto 13 (Molecular Probes, Oregon, USA). Labelling methods are as described by the manufacturers of the dyes. The amount of fluorescence is measured in a fluorimeter (Fluroscan from Lab-Systems, Helsinki, Finland) and is in direct relationship to the number of bacteria present.
(§2) The following general method may be used to measure adherence of the yeast Candida albicans to BEC and the inhibition of that adherence using the formulation of milk serum apoprotein(s) as described above. The same general method is suitable for measuring inhibition of adherence of Staphylococcus aureus to BEC's and also inhibition of adherence of Streptococcus mutans, with the exception that the substrate for Streptococcus mutans, is powdered hydroxylapatite available from Merck and used as a surrogate for dental enamel.
MRSA is routinely sub-cultured on blood agar and a single colony is used to inoculate a tube of Oxoid Brain Heart Infusion Broth as described in Methods and Materials above. After 8 hours, the innoculum is used in growth and adhesion assays using the methodologies described above.
MRSA adheres to BEC's, and these are used here in a manner similar to that described for Candida albicans. […] Bovine Serum Albumin is used as a ‘protein blank’ and this material has no effect on the adhesion of MRSA to BEC's.

Streptococcus mutans = test: Adhesion of Streptococcus mutans to hydroxyapatite beads; details: 0.8 mg/ml; saliva coated hydroxyapatite; Diagram 13
From the text: as §2
In measuring inhibition of adherence of Streptococcus mutans, hydroxyapatite powder from Merck was used as a surrogate for dental enamel. The test procedure is as described in Methods and Materials above, with the following modifications: 1 ml of fresh culture, adjusted to an optical density of 0.1 at 600 nm, is added to 5 mg of saliva coated hydroxyapatite beads; allowed to adhere for 1 hour; and centrifuged at slow speed to sediment the hydroxyapatite with adhering bacteria. The number of bacteria remaining in the supernatant are that percentage of the original population not adhering and are expressed as a percentage of the original population; the inverse being […].

Candida albicans = test: Adhesion of Candida albicans to Buccal Epithelial Cells (adhesion assay); details: 1 mg/ml; yeast pre-treated 10 minutes; Diagram 8
From the text: Measurement of adhesion, and inhibition of the same, requires selection of a suitable substrate and a method of enumerating number of organisms adhering (or not) to that substrate. Most potential pathogenic organisms adhere to mucosal epithelial cells and a convenient source of a representative mucosal epithelial cell may be easily harvested from inside the cheek. Buccal epithelial cells (BEC's) are harvested by scraping the mucosal membranes in the mouth using a wooden tongue depresser as follows.
Standard wooden tongue depressers as used in clinical examination of the mouth are wrapped, in tin foil and autoclaved. […]
as §1, with “this. […]” for “this.”
Both the washed BEC's and the freshly grown washed yeast cells are counted microscopically and the concentrations adjusted such that the yeast is in the order of 1×10^5 and BEC's at 1×10^3. […]

Question: O=C([O-])CC(O)(CC(=O)[O-])C(=O)[O-].[Na+].[Na+].[Na+] [sodium citrate] was tested. Which “inhibition of adhesion of MRSA to Buccal Epithelial Cell” value [1] did it give?
Answer: approximately 10%

Question: And the “inhibition of adhesion of MRSA to Buccal Epithelial Cell” value ([1]; listed as Sodium citrate)?
Answer: no effect on adhesion

Question: And the “inhibition of adhesion of Streptococcus mutans to hydroxyapatite beads” value (Streptococcus mutans)?
Answer: ~10%

Question: Which results are given for “Bovine Serum Albumin: protein blank in Diagrams 8, 11 and 13”?
Answer: inhibition of adhesion of MRSA to Buccal Epithelial Cell [1]: no effect; inhibition of adhesion of Streptococcus mutans to hydroxyapatite beads (Streptococcus mutans): ~30%; inhibition of adhesion of Candida albicans to Buccal Epithelial Cell (Candida albicans): 13%
